{"source": "patent US20100221361A1", "about": "“STABLE OXIDIZING BROMINE COMPOSITION, METHOD OF MANUFACTURE AND USE THEREOF FOR BIOFOULING CONTROL” (priority 2009, published 2010)", "origin": "cited, not measured here", "conditions": "in water"}
{"smiles": "BrBr", "note": "[elemental liquid bromine, bromine]", "values": [{"measurement": "solubility", "result": "< 4", "unit": "g/ 100 g water"}]}
